Data set [1] concerns retina (outer nuclear layer). Kind of data set: Progressive light-induced retinal degeneration. It is filed as in vivo, rat. To be noted: 6 mg/kg/day, three times a day, 7 days. The protocol:
Rats bred under cyclic low-intensity lighting were transferred to cyclic high-intensity lighting for one week and divided into 3 groups (non-treated animals, vehicle-treated animals and AOL-treated animals). Treated animals received injections of vehicle or AOL at a dose of 6 mg/kg/day, three times a day for the 7 days of the transfer (30 minutes before light-ON; at […]). After one week, animals were transferred in the dark (D0).
A control group (“untransferred”) was not transferred to cyclic high-intensity lighting but received the same treatment as described above: injections of vehicle or AOL three times a day for 7 days, followed by a transfer in the dark (D0).
Animals were then sacrificed for histological analysis.

Data set [2] relates to isolated perfused rat heart. Briefly: Global ischemia-reperfusion of isolated perfused rat heart (Langendorff). Conditions: 10 μM AOL pretreatment, 30 min ischemia. The procedure:
The consequences of 30 minutes' global ischemia followed by 120 minutes' reperfusion (FIG. 11) on contractility and tissue viability were studied on isolated perfused rat heart pretreated or not (control vehicle) with 10 μM AOL.
All procedures conformed to the UK Animals (Scientific Procedures) Act 1986 and the Guide for the Care and Use of Laboratory Animals published by the National Institutes of Health (NIH Publication No. 85-23. revised 1996). Male Wistar rats (250-300 g) were anesthetized by 3% isoflurane, heparinized and euthanized by a lethal IP injection of pentobarbital (130 mg/kg). […] Langendorff heart perfusions were performed (Garlid et al., 2006. Am. J. Physiol. Heart Circ. Physiol. 291(1):H152-60) and contractility was assessed by continuous measurement of the rate pressure product (RPP) thanks to a balloon placed in the left ventricle and connected to a pressure transducer. […]
At the end of the reperfusion period, hearts were stained with triphenyltetrazolium chloride (TTC): hearts were perfused for 7 minutes at 13 mL/min with a 12% (w/v) TTC solution in order to get a 1% final concentration in the heart. […] The surface of the necrotic and at-risk areas of each side were determined on each photography by planimetry (AlphaEase v5.5), and infarct size was expressed as a percentage of the total cross-sectional area of the heart, since total heart was subjected to ischemia.

The conditions of data set [3]: cited from earlier work.
The test system of another data set is Sod2-KO mice. Briefly: Sod2-KO mice (lifespan, heart SDH activity, liver Oil Red O staining). It is filed as in vivo, mouse. The source says: Mice deficient in mitochondrial Mn-Superoxide Dismutase (Sod2-KO) on a CD1-background were used. This genetic alteration leads to an adverse phenotype and the death of animals at an average of 8 days old. Mitochondrial superoxide dismutase is a free radical scavenging enzyme which transforms superoxide (highly reactive) into hydrogen peroxide (less reactive), that could then cross mitochondrial membranes and be detoxified by matrix and cytosolic anti-oxidant systems. The aim of this study was to test if AOL could rescue the Sod2-KO phenotype through its activity on IQ superoxide production.
After birth, pups were genotyped (3 day-old) and the litter size was reduced to 6 pups per cage. Animals were then treated (AOL in Kolliphor®—5 mg/kg) or not (Kolliphor® only, noted KOL below). […] Two studies were conducted on two different generations from the same parents: lifespan; and succinate dehydrogenase activity in heart (SDH) and Oil Red O staining in liver. Animals were weighed and injected (intra-peritoneal) daily.
Succinate dehydrogenase activity is a marker of superoxide in the mitochondrial matrix. Thus, a lack of SOD2 is associated with a decrease of SDH activity in heart. The aim of this experiment was to test whether or not AOL could restore SDH activity in KO mice.
However, the direct link between superoxide/hydrogen peroxide production and liver lipid accumulation is not established. The aim of the study was to test the potency of AOL to prevent liver lipid accumulation in Sod2-KO mice.
Animals were injected once a day from 3 days old until their death.
In this study, animals were treated daily (5 mg/kg) from day 3 to day 5. Heart and liver were harvested at day 6.

Data set [4] relates to carcinoma cell lines A549 and H460. Kind of data set: Cytotoxicity, sulforhodamine B (SRB) assay. It is filed as cell-based, human. Conditions: 48 hours. The procedure: Human non-small cell carcinoma cell line H460 and A549 were obtained from ATCC. Cells were cultured in growth medium consisting of DMEM (GIBCO), 10% FBS (GIBCO) and 100 units of penicillin and 100 μg/mL streptomycin (GIBCO). The cells were maintained in either 75-cm^2 T-flasks or 175-cm^2 T-flasks (BD Biosciences) in an incubator (model 3100 series, Forma Scientific, Marietta, Ohio) controlled at 37° C., 95% humidity, and 5% CO2. Cell culture medium was refreshed every other day. Every 2 to 3 days, H460 and A549 cultures were detached from the flasks using a 0.25% trypsin solution (Gibco) and subcultured. All cultures were maintained at 80-90% confluence at the time of subculture.
Cytotoxicity screening was carried out by sulforhodamine B colorimetric assay. A549 and H460 cells (2·10^3) were seeded in a 96-well plate, and after adherence, cells were incubated with 5 to 500 μM of AOL or AOX or control dimethyl sulfoxide (DMSO). Cytotoxicity was evaluated after 48 hours treatment sulforhodamine B (SRB) assay, according to Vichai (Vichai et al., 2006. Nat. Protoc. 1(3):1112-6).
On the technique in general: In SRB staining, fixed cells bind dye roughly in proportion to their protein.

Setting [5] is: 5 mg/kg daily, day 3 to day 5, Oil Red O.

Regarding `COc1ccc(-c2cc(=S)ss2)cc1` [AOL, 5-(4-methoxyphenyl)-3H-1,2-dithiole-3-thione], the “thickness of the outer nuclear layer (ONL)” value was “significant increase of the thickness of the ONL” in data set [1] (transferred to cyclic high-intensity lighting) and “no effect on ONL's thickness” in data set [1] (untransferred control group). Moreover, the “infarcted tissue rescued (TTC staining)” value in data set [2] (120 min reperfusion) is on record as “about 50%”. For the same molecule, the “heart contractility (RPP) relative to control hearts” value in data set [2] (after 2 hours of reperfusion) was “about three times higher than control hearts”. Besides, the bioavailability result in data set [3] is on record as “known to be very short”. Besides, the “SDH activity in heart of KO mice” value with Sod2-KO mice (5 mg/kg daily, day 3 to day 5) is “only a very slight increase in SDH activity”. For the same molecule, the “liver lipid droplets density in KO mice” value with Sod2-KO mice (setting [5]) is given as “lipid droplets density decreased”. Moreover, the “liver total lipid area in KO mice” value with Sod2-KO mice (setting [5]) was “able to restore the total lipid area”. In the data set with Sod2-KO mice (5 mg/kg i.p. daily from 3 days old), the “lifespan extension compared to untreated KO mice” value was “up to 2 days”. Also, the “body weight and body weight gain of KO mice” value in the data set with Sod2-KO mice (5 mg/kg i.p. daily, day 8 to 12) is reported as “tends to alleviate this effect”.
Usually IC50 stands for the midpoint of a concentration-inhibition curve. Consider `Oc1ccc(-c2cc(=S)ss2)cc1` [AOX, 5-(4-hydroxyphenyl)-3H-1,2-dithiole-3-thione], for which the “concentrations without significant toxicity” value in data set [4] is “lower than 100 μM”. For the same molecule, in data set [4] (Homo sapiens, 0 to 500 μM, read-out: IC50 for high dose toxicity), the half-inhibitory concentration (IC50) was 134.8 ± 0.3 µM.

The record behind these values is patent US11484529B2, “Desmethylanethole trithione derivatives for the treatment of diseases linked to mitochondrial reactive oxygen species (ROS) production” (OP2 Drugs, priority 2017, dated 2022).
